Data reported in patent US6737383B1, “Herbicidal oxadiazolidines” (priority 1999, dated 2004).

Assays:
bedstraw = assay: Test B pre/postemergence bedstraw; type: in vivo, Galium aparine; details: for Plant response rating, Bedstraw: Postemergence
Method in brief: (§1)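 Test chemicals in a non-phytotoxic solvent mixture with surfactant were sprayed preemergence onto planted seeds and postemergence onto plants 2 to 18 cm tall (1- to 4-leaf stage). After twelve to sixteen days in a greenhouse, injury was visually rated against untreated controls from 0 (no effect) to 10 (complete control).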

blackgrass = assay: Test B pre/postemergence blackgrass; type: in vivo, Alopecurus myosuroides; details: for Plant response rating, Blackgrass: Postemergence
Method in brief: as §1

surinam grass = assay: Test B pre/postemergence surinam grass; type: in vivo, Brachiaria decumbens; details: for Plant response rating, B. signalgrass: Postemergence
Method in brief: as §1

cocklebur = assay: Test B pre/postemergence cocklebur; type: in vivo, Xanthium strumarium; details: for Plant response rating, Cocklebur: Postemergence; for Cocklebur plant response rating: scale of 0 to 10 where 0 is no effect and 10 is complete control
Method in brief: as §1

corn = assay: Test B pre/postemergence corn; type: in vivo, Zea mays; details: for Plant response rating, Corn: Postemergence; for Corn plant response rating: scale of 0 to 10 where 0 is no effect and 10 is complete control
Method in brief: as §1

crabgrass = assay: Test B pre/postemergence crabgrass; type: in vivo, Digitaria sanguinalis; details: for Plant response rating, Crabgrass: Postemergence; for Crabgrass plant response rating: scale of 0 to 10 where 0 is no effect and 10 is complete control
Method in brief: as §1

giant foxtail = assay: Test B pre/postemergence giant foxtail; type: in vivo, Setaria faberii; details: for Plant response rating, Giant foxtail: Postemergence; for Giant foxtail plant response rating: Preemergence, scale of 0 to 10 where 0 is no effect and 10 is complete control
Method in brief: as §1

morningglory = assay: Test B pre/postemergence morningglory; type: in vivo, Ipomoea hederacea; details: for Plant response rating, Morningglory: Postemergence; for Morningglory plant response rating: scale of 0 to 10 where 0 is no effect and 10 is complete control
Method in brief: as §1

pigweed = assay: Test B pre/postemergence pigweed; type: in vivo, Amaranthus retroflexus; details: for Plant response rating, Redroot pigweed: Postemergence; for Redroot pigweed plant response rating: scale of 0 to 10 where 0 is no effect and 10 is complete control
Method in brief: as §1

rape = assay: Test B pre/postemergence rape; type: in vivo, Brassica napus; details: for Plant response rating, Rape: Postemergence; for Rape plant response rating: scale of 0 to 10 where 0 is no effect and 10 is complete control
Method in brief: as §1

soybean = assay: Test B pre/postemergence soybean; type: in vivo, Glycine max; details: for Plant response rating, Soybean: Postemergence; for Soybean plant response rating: scale of 0 to 10 where 0 is no effect and 10 is complete control
Method in brief: as §1

sugar beet = assay: Test B pre/postemergence sugar beet; type: in vivo, Beta vulgaris; details: for Plant response rating, Sugarbeets: Postemergence; for Sugarbeets plant response rating: scale of 0 to 10 where 0 is no effect and 10 is complete control
Method in brief: as §1

velvetleaf = assay: Test B pre/postemergence velvetleaf; type: in vivo, Abutilon theophrasti; details: for Plant response rating, Velvetleaf: Postemergence; for Velvetleaf plant response rating: scale of 0 to 10 where 0 is no effect and 10 is complete control
Method in brief: as §1

wheat = assay: Test B pre/postemergence wheat; type: in vivo, Triticum aestivum; details: for Plant response rating, Wheat: Postemergence; for Wheat plant response rating: scale of 0 to 10 where 0 is no effect and 10 is complete control
Method in brief: as §1

wild oat = assay: Test B pre/postemergence wild oat; type: in vivo, Avena fatua; details: for Plant response rating, Wild oats: Postemergence; for Wild oats plant response rating: scale of 0 to 10 where 0 is no effect and 10 is complete control
Method in brief: as §1

purple nutsedge = assay: Test B pre/postemergence purple nutsedge; type: in vivo, Cyperus rotundus; details: for Plant response rating, Nutsedge: Postemergence; for Nutsedge plant response rating: scale of 0 to 10 where 0 is no effect and 10 is complete control
Method in brief: as §1

rice = assay: Test B flood test rice; type: in vivo, Oryza sativa; details: Pre-emergence
Method in brief: (§2)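 Plants were grown to the 2-leaf stage before treatment with test chemical, then held in a greenhouse for twelve to sixteen days. Injury was visually rated against untreated controls on a 0–10 scale, where 0 is no effect and 10 is complete control.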

smallflower flatsedge = assay: Test B flood test smallflower flatsedge; type: in vivo, Cyperus difformis; details: Pre-emergence
Method in brief: as §2

duck salad = assay: Test B flood test duck salad; type: in vivo, Heteranthera limosa; details: Pre-emergence
Method in brief: as §2

bamyardgrass = assay: Test B flood test barnyardgrass; type: in vivo, Echinochloa crus-galli; details: Pre-emergence
Method in brief: as §2

[1] = Rate 125 g/ha, scale 0 to 10, 0 is no effect, 10 is complete control
[2] = Preemergence, Rate 500 g/ha, scale of 0 to 10 where 0 is no effect and 10 is complete control
[3] = Rate 500 g/ha, scale 0 to 10, 0 no effect, 10 complete control
[4] = Preemergence, Rate 250 g/ha, scale of 0 to 10 where 0 is no effect and 10 is complete control
[5] = Rate 250 g/ha, scale of 0 to 10 where 0 is no effect and 10 is complete control
[6] = Rate 1000 g/ha, scale 0 to 10 (0 no effect, 10 complete control)
[7] = Rate 125 g/ha, flood test species, scale 0 to 10 where 0 is no effect and 10 is complete control
[8] = Rate 250 g/ha, flood-test species, scale 0 to 10, 0 is no effect, 10 is complete control
[9] = Rate 500 g/ha, flood test species, scale 0 to 10 (0 no effect, 10 complete control)

CCOC(=O)C(C)N(C(=O)n1oc(=O)n(-c2c(C)cccc2OC)c1=O)c1ccc(F)cc1 (centres unmarked) [Compound 331]
0: Plant response rating, Bedstraw (bedstraw; [1]) | Bedstraw plant response rating (bedstraw; [2]) | Plant response rating, Bedstraw (bedstraw; [3]) | Plant response rating, Blackgrass (blackgrass; [1]) | Blackgrass plant response rating (0 to 10 scale) (blackgrass; Preemergence, Rate 125 g/ha) | Blackgrass plant response rating (blackgrass; [4]) | Blackgrass plant response rating (blackgrass; [2]) | Plant response rating, Blackgrass (blackgrass; [5]) | Plant response rating, Blackgrass (blackgrass; [3]) | Plant response rating, B. signalgrass (surinam grass; [1]) | B. signalgrass plant response rating (0 to 10 scale, 0 is no effect, 10 is complete control) (surinam grass; Preemergence, Rate 125 g/ha) | B. signalgrass plant response rating (surinam grass; [4]) | B. signalgrass plant response rating (surinam grass; [2]) | Plant response rating, B. signalgrass (surinam grass; [5]) | Plant response rating, B. signalgrass (surinam grass; [3]) | Plant response rating, Cocklebur (cocklebur; [1]) | Cocklebur plant response rating (0 to 10 scale) (cocklebur; Preemergence, Rate 125 g/ha) | Cocklebur plant response rating (cocklebur; Preemergence, Rate 250 g/ha) | Cocklebur plant response rating (cocklebur; Preemergence, Rate 500 g/ha) | Plant response rating, Cocklebur (cocklebur; [3]) | Plant response rating, Corn (corn; [1]) | Corn plant response rating (0 to 10 scale) (corn; Preemergence, Rate 125 g/ha) | Corn plant response rating (corn; Preemergence, Rate 250 g/ha) | Corn plant response rating (corn; Preemergence, Rate 500 g/ha) | Plant response rating, Corn (corn; [3]) | Plant response rating, Crabgrass (crabgrass; [1]) | Crabgrass plant response rating (0 to 10 scale) (crabgrass; Preemergence, Rate 125 g/ha) | Crabgrass plant response rating (crabgrass; Preemergence, Rate 250 g/ha) | Crabgrass plant response rating (crabgrass; Preemergence, Rate 500 g/ha) | Plant response rating, Crabgrass (crabgrass; [3]) | Plant response rating, Giant foxtail (giant foxtail; [1]) | Giant foxtail plant response rating (giant foxtail; Rate 250 g/ha) | Giant foxtail plant response rating (giant foxtail; Rate 500 g/ha) | Plant response rating, Giant foxtail (giant foxtail; [3]) | Plant response rating, Morningglory (morningglory; [1]) | Morningglory plant response rating (0 to 10 scale) (morningglory; Preemergence, Rate 125 g/ha) | Morningglory plant response rating (morningglory; Preemergence, Rate 250 g/ha) | Morningglory plant response rating (morningglory; Preemergence, Rate 500 g/ha) | Plant response rating, Morningglory (morningglory; [3]) | Plant response rating, Redroot pigweed (pigweed; [1]) | Redroot pigweed plant response rating (0 to 10 scale) (pigweed; Preemergence, Rate 125 g/ha) | Redroot pigweed plant response rating (pigweed; Preemergence, Rate 250 g/ha) | Redroot pigweed plant response rating (pigweed; Preemergence, Rate 500 g/ha) | Plant response rating, Redroot pigweed (pigweed; [3]) | Plant response rating, Rape (rape; [1]) | Rape plant response rating (0 to 10 scale) (rape; Preemergence, Rate 125 g/ha) | Rape plant response rating (rape; Preemergence, Rate 250 g/ha) | Rape plant response rating (rape; Preemergence, Rate 500 g/ha) | Plant response rating, Rape (rape; [3]) | Plant response rating, Soybean (soybean; [1]) | Soybean plant response rating (0 to 10 scale) (soybean; Preemergence, Rate 125 g/ha) | Soybean plant response rating (soybean; Preemergence, Rate 250 g/ha) | Soybean plant response rating (soybean; Preemergence, Rate 500 g/ha) | Plant response rating, Soybean (soybean; [3]) | Plant response rating, Sugarbeets (sugar beet; [1]) | Sugarbeets plant response rating (0 to 10 scale) (sugar beet; Preemergence, Rate 125 g/ha) | Sugarbeets plant response rating (sugar beet; Preemergence, Rate 250 g/ha) | Sugarbeets plant response rating (sugar beet; Preemergence, Rate 500 g/ha) | Plant response rating, Sugarbeets (sugar beet; [3]) | Plant response rating, Velvetleaf (velvetleaf; [1]) | Velvetleaf plant response rating (0 to 10 scale) (velvetleaf; Preemergence, Rate 125 g/ha) | Velvetleaf plant response rating (velvetleaf; Preemergence, Rate 250 g/ha) | Velvetleaf plant response rating (velvetleaf; Preemergence, Rate 500 g/ha) | Plant response rating, Velvetleaf (velvetleaf; [3]) | Plant response rating, Wheat (wheat; [1]) | Wheat plant response rating (0 to 10 scale) (wheat; Preemergence, Rate 125 g/ha) | Wheat plant response rating (wheat; Preemergence, Rate 250 g/ha) | Wheat plant response rating (wheat; Preemergence, Rate 500 g/ha) | Plant response rating, Wheat (wheat; [3]) | Plant response rating, Wild oats (wild oat; [1]) | Wild oats plant response rating (0 to 10 scale) (wild oat; Preemergence, Rate 125 g/ha) | Wild oats plant response rating (wild oat; Preemergence, Rate 250 g/ha) | Wild oats plant response rating (wild oat; Preemergence, Rate 500 g/ha) | Plant response rating, Wild oats (wild oat; [3]) | Plant response rating, Nutsedge (purple nutsedge; [1]) | Nutsedge plant response rating (0 to 10 scale) (purple nutsedge; Preemergence, Rate 125 g/ha) | Nutsedge plant response rating (purple nutsedge; Preemergence, Rate 250 g/ha) | Nutsedge plant response rating (purple nutsedge; Preemergence, Rate 500 g/ha) | Plant response rating, Nutsedge (purple nutsedge; [3]) | Rice plant response rating (rice; [6]) | Rice plant response rating (rice; [7]) | Rice plant response rating (rice; [8]) | Rice plant response rating (rice; [9]) | S. Flatsedge plant response rating (smallflower flatsedge; [6]) | S. Flatsedge plant response rating (smallflower flatsedge; [7]) | S. Flatsedge plant response rating (smallflower flatsedge; [8]) | S. Flatsedge plant response rating (smallflower flatsedge; [9]) | Ducksalad plant response rating (duck salad; [6]) | Ducksalad plant response rating (duck salad; [7]) | Ducksalad plant response rating (duck salad; [8]) | Ducksalad plant response rating (duck salad; [9]) | Barnyardgrass plant response rating (bamyardgrass; [6]) | Barnyardgrass plant response rating (bamyardgrass; [7]) | Barnyardgrass plant response rating (bamyardgrass; [8]) | Barnyardgrass plant response rating (bamyardgrass; [9])
